Measured values as given in patent publication US20240025892A1 (priority 2020, published 2024).
Entries after “also recorded” stand apart in the source; their conditions may differ. Where two headings read alike, the source gives them in different places.

Columns and labels:
Recombinant SIK2 = Recombinant SIK2 (Homo sapiens (Human), UniProt Q9H0K1); assay: biochemical; conditions: recombinant SIK2 2.5 nM, 1 μM ATP; read-out: SIK2 IC50
Procedure: (§1) Assays were performed in base reaction buffer (20 mM Hepes (pH 7.5), 10 mM MgCl2, 1 mM EGTA, 0.02% Brij35, 0.02 mg/mL BSA, 0.1 mM Na3VO4, 2 mM DTT, 1% DMSO). Compounds were dissolved in 100% DMSO in a 10 mM stock. […] Assays were performed for 20 minutes at room temperature, after which time ^33P-ATP (10 μCi/μL) was added followed by incubation for another 120 minutes at room temperature. Thereafter, radioactivity incorporated into the pEY peptide substrate was detected by filter-binding method. Kinase activity data were expressed as the percent remaining kinase activity in test samples compared to DMSO reactions. IC50 values and curve fits were obtained using Prism (GraphPad Software).

SIK3 = SIK3 (Homo sapiens (Human), UniProt Q9Y2K2); assay: In vitro SIK3 kinase assay; format: biochemical
Chain of SIK3 (Q9Y2K2 whole entry): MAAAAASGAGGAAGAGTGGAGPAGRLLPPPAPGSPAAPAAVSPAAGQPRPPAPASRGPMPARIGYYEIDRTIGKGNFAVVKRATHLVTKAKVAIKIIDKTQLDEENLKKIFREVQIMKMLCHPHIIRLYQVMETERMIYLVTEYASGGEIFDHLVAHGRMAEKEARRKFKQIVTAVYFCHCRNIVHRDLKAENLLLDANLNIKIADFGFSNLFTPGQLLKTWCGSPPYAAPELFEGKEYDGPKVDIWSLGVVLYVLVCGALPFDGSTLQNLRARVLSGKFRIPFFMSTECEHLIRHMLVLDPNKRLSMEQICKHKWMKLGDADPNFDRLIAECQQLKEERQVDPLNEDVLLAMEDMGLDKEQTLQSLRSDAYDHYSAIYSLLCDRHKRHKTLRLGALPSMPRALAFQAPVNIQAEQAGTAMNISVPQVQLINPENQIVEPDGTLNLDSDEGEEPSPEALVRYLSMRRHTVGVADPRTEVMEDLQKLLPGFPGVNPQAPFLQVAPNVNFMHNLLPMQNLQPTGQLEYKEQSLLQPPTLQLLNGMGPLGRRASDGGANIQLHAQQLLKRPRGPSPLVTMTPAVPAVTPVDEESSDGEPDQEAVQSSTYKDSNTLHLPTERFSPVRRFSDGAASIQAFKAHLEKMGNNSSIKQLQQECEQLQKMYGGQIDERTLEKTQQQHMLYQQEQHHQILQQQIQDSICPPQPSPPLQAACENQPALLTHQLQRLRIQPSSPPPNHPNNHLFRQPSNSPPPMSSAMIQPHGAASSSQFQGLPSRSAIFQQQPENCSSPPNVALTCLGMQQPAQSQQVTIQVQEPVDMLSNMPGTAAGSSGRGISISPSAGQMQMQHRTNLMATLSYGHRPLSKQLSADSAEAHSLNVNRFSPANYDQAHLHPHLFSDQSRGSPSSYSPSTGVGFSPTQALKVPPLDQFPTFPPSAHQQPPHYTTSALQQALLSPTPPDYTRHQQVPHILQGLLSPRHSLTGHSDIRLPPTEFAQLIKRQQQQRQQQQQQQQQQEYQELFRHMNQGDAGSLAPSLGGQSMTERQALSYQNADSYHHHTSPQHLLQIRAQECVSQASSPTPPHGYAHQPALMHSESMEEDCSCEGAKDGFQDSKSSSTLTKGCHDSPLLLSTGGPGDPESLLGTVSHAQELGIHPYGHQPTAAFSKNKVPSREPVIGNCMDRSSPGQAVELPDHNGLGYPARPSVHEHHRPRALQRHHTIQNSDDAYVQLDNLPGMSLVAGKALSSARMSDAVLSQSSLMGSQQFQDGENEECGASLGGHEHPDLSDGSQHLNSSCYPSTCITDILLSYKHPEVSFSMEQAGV
Procedure: as §1

SIK1 = SIK1 (Homo sapiens (Human), UniProt P57059); assay: In vitro SIK1 kinase assay; format: biochemical
Chain of SIK1 (P57059 whole entry): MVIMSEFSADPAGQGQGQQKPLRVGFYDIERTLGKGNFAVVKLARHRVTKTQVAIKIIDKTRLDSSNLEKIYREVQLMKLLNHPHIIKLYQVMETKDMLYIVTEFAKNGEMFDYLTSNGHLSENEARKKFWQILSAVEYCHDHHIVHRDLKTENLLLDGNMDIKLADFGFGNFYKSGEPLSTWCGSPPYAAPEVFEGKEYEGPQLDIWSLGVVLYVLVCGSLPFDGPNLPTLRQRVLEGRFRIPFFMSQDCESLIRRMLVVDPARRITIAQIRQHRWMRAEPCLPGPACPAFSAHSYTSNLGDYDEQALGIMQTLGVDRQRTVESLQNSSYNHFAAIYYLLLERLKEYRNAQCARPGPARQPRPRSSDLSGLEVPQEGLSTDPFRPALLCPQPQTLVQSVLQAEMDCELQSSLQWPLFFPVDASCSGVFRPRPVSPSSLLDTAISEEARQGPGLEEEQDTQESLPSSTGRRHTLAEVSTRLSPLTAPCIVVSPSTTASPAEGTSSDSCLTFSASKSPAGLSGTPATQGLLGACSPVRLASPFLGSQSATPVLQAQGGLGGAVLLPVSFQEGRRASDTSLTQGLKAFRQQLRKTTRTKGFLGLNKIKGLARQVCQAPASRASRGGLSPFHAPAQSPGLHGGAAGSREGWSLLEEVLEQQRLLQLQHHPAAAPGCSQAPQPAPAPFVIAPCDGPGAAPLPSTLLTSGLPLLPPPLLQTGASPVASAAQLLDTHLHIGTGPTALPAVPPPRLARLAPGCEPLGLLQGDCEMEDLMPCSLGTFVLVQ
Procedure: as §1

[1] = molecular target: NanoLuc-SIK2 fusion in HEK293 cells (Homo sapiens (Human), UniProt Q9H0K1); assay: cell-based
Chain of NanoLuc-SIK2 fusion in HEK293 cells (Q9H0K1 whole entry, the tested form may be a part): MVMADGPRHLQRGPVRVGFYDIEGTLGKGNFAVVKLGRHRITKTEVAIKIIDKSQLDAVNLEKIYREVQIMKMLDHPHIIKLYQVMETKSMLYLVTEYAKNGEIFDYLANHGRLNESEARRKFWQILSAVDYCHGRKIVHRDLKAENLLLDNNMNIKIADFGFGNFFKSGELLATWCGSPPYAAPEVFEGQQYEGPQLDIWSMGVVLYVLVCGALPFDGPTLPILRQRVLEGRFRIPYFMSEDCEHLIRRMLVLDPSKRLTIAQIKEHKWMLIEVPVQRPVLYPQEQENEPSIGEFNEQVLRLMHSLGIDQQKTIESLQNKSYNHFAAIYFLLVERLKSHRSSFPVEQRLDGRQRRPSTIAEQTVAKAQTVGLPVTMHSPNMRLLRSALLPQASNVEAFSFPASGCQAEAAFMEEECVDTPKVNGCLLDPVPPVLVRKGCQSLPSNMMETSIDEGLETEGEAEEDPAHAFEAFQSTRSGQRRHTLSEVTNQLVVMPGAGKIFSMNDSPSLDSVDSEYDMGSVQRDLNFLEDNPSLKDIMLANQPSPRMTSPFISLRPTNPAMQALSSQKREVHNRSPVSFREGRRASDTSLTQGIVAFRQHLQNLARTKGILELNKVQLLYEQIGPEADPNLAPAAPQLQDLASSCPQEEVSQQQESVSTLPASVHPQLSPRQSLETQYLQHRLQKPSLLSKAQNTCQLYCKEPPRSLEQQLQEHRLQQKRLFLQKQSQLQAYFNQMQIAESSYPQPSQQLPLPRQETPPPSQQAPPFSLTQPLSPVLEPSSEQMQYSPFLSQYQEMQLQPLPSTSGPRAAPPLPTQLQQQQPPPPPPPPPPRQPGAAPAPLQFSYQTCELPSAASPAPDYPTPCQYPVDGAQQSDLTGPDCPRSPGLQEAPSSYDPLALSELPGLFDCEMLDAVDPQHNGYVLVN
Procedure: Assays were performed at Reaction Biology Corporation (Malvern, PA) in HEK293 cells from ATCC in 384 well plate format using Promega's NanoBRET TE intracellular kinase assay platform. HEK293 cells transiently expressing NanoLuc-SIK2 fusion vector were seeded into 384 well plates. Cells were pre-treated with the NanoBRET Tracer K-4 and then treated with compounds for 60 minutes in 10 point dose response format. […] IC50 values were calculated and IC50 curves were plotted using the GraphPad Prism 4 program on a sigmoidal dose response equation.

CRTC2 (TORC2) = assay: CRTC2 nuclear translocation (PathHunter U2OS); format: cell-based; conditions: maximal CRTC2 nuclear translocation, U2OS cells, 90 minutes, maximum dose 10 μM
From the text: PathHunter® Nuclear Translocation cell lines are engineered to co-express two fusion proteins: a) Enzyme Donor (ED) tagged target protein; b) an Enzyme Acceptor (EA) tagged TAZ domain, derived from the CBP/P300 transcription factor, that localizes to the nucleus. Activation of the signaling pathway induces translocation of the ED-tagged target protein into the nucleus, which will force complementation of the two enzyme fragments, and result in the formation of a functional enzyme that will hydrolyze substrate and generate a chemiluminescent signal. U2OS CRTC2 (TORC2) translocation assays were performed in 384 well plates at Eurofins DiscoverX (Freemont, CA). Cells were treated with compounds for 90 minutes in experimental duplicates in 5 point dose response format (4-fold serial dilutions with a maximum dose of 10 μM) followed by […] readout on an Envision 2104 Multilabel Reader. In all experiments, forskolin was used as a positive control and maximal CRTC2 nuclear translocation induced by each compound is expressed as a percentage of the signal stimulated by forskolin.
Representative data are shown in FIG. 4A and presented as percent of the positive control (forskolin) signal.

RANKL = RANKL gene expression in Ocy454 cells (RT-qPCR); conditions: maximal RANKL fold induction versus DMSO, four hours;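 note: Ocy454 cells moved to 37 °C for osteocytic differentiation before compound exposure, RANKL mRNA by SYBR Green qRT-PCR, 2^−ΔΔCT with β-actin normalization, duplicate wells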
[2] = system: 12 week old female C57B6 mice, sham or OVX; assay: Ovariectomy (OVX) mouse model of post-menopausal osteoporosis; format: in vivo
From the text: Recent reports have described the signaling pathway used by PTH in target cells in bone (see e.g., Wein et al, Nature Communications, 2016, 7:13176; Wein et al, Trends Endocrinol Metab. 2018; and Nishimori et al, J. Clin. Invest. 2019). One step in this cascade is that PTH signaling leads to PKA-dependent inhibition of salt inducible kinases (SIKs). Small molecule SIK inhibitors, such as YKL-05-099 (see e.g., Sundberg et al, ACS chemical biology, 2016; and Tarumoto et al, Blood, 2019), a tool compound that inhibits all 3 SIK isoforms, mimic the actions of PTH (see e.g., Wein et al, Nature Communications, 2016, 7:13176). The efficacy of YKL-05-099 has been tested in mice rendered hypo-gonadal by surgical removal of the ovaries, a model of post-menopausal osteoporosis. […] Therefore, mice were generated where SIK2/3 can be deleted ubiquitously in a tamoxifen-dependent manner to assess the safety and skeletal efficacy of selective SIK2/3 deletion in adult animals.

[3] = HEK293 cells, compounds for 60 minutes, read-out: SIK2 NanoBRET
[4] = mice, YKL-05-099 18 mg/kg once daily for 4 weeks

Chain of Recombinant SIK2 (Q9H0K1 whole entry): as the sequence (Q9H0K1 whole entry, the tested form may be a part) above

Structure (SMILES) | IC50 (Recombinant SIK2) | IC50 (SIK3) | IC50 (SIK1) | IC50 [1, 3] | CRTC2 Efficacy (% of forskolin) (CRTC2 (TORC2)) | RANKL Fold Induction (RANKL) | IC50 [1] | bone density / bone mass and bone formation ([2]; OVX mice, once daily for 4 weeks, PTH 100 mcg/d, YKL-05-099 18 mg/kg) | BUN levels / renal function [2, 4] | fasting glucose [2, 4]
CC1(COc2ccc3c(c2)ncn3-c2ccc3cccc(N4CCC5(CCN5)CC4)c3n2)COC1 [Example 3, 2-(5-((3-methyloxetan-3-yl)methoxy)-1H-benzo[d]imidazol-1-yl)-8-(1,7-diazaspiro[3.5]nonan-7-yl)quinoline] | 0.979 nM | 2.24 nM | 18.4 nM | 8.86 nM | 88.5 % of forskolin | 57.08 fold |  |  |  | 
CC1(COc2ccc3c(c2)ncn3-c2ccc3cccc(N4CC(N)C4)c3n2)COC1 [Example 7, 1-(2-(5-((3-methyloxetan-3-yl)methoxy)-1H-benzo[d]imidazol-1-yl)quinolin-8-yl)azetidin-3-amine] | 8.35 nM | 11.5 nM | 138 nM | 43.2 nM | 89 % of forskolin | 30.37 fold |  |  |  | 
COCCN1CCC12CCN(c1cccc3ccc(-n4cnc5cc(OCC6(C)COC6)ccc54)nc13)CC2 [Example 12, 8-[1-(2-Methoxyethyl)-1,7-diazaspiro[3.5]nonan-7-yl]-2-[5-[(3-methyloxetan-3-yl)methoxy]benzimidazol-1-yl]quinoline] | 4.9 nM | 11.9 nM | 140 nM |  | 37.6 % of forskolin | 62.52 fold | 925 nM |  |  | 
N#Cc1ccc(-c2cnc3cc(C(=O)NCc4nc5ccccc5[nH]4)ccn23)cc1 [Example 22, N-((1H-benzo[d]imidazol-2-yl)methyl)-3-(4-cyanophenyl)imidazo[1,2-a]pyridine-7-carboxamide] | 5.58 nM | 497 nM | 13000 nM | 117 nM | 12.9 % of forskolin | 1.19 fold |  |  |  | 
N#Cc1ccc(-c2cnc3cc(C(=O)NCc4cn5ccccc5n4)ccn23)cc1 [Example 24, 3-(4-cyanophenyl)-N-(imidazo[1,2-a]pyridin-2-ylmethyl)imidazo[1,2-a]pyridine-7-carboxamide] | 11.4 nM | 835 nM | 12500 nM | 42.1 nM | 21.2 % of forskolin | 2.24 fold |  |  |  | 
COc1ccc(OC)c(-c2cnc3cc(C(=O)NCc4cccnc4)ccn23)c1 [Example 31, 3-(2,5-dimethoxyphenyl)-N-(3-pyridylmethyl)imidazo[1,2-a]pyridine-7-carboxamide] |  | 76.1 nM | 409 nM |  | 31.2 % of forskolin | 0.90 fold | 4020 nM |  |  | 
N#Cc1ccc(-n2cnc3cc(C(=O)NCc4cn5ccccc5n4)ccc32)cc1 [Example 33, 1-(4-cyanophenyl)-N-(imidazo[1,2-a]pyridin-2-ylmethyl)-1H-benzo[d]imidazole-5-carboxamide] | 14.2 nM | 2550 nM | 5420 nM | 44.8 nM | 21.7 % of forskolin | 0.92 fold |  |  |  | 
N#Cc1ccc(-c2cnn3cc(C(=O)NCc4nc5cccnc5[nH]4)ccc23)cc1 [Example 35, 3-(4-Cyanophenyl)-N-(3H-imidazo[4,5-b]pyridin-2-ylmethyl)pyrazolo[1,5-a]pyridine-6-carboxamide] | 7.55 nM | 103 nM | 2090 nM |  | 8.9 % of forskolin | 0.39 fold | 93.2 nM |  |  | 
N#Cc1ccc(-c2cnn3cc(C(=O)NCc4cccnc4)ccc23)cc1 [Example 37, 3-(4-Cyanophenyl)-N-(3-pyridylmethyl)pyrazolo[1,5-a]pyridine-6-carboxamide] | 32.5 nM | 310 nM | 775 nM | 116 nM | 40.6 % of forskolin | 1.17 fold |  |  |  | 
N#Cc1ccc(-c2cnc3cc(-c4cnn(C5CC5)c4)ccn23)cc1 [Example 49, 4-(7-(1-cyclopropyl-1H-pyrazol-4-yl)imidazo[1,2-a]pyridin-3-yl)benzonitrile] | 0.101 nM | 1.43 nM | 2.16 nM | 1.36 nM | 92.2 % of forskolin | 6.31 fold |  |  |  | 
CCc1nnc(-c2ccc(-c3cnc4cc(-c5cnn(C)c5)ccn34)cc2OC)o1 [Example 57, 2-ethyl-5-(2-methoxy-4-(7-(1-methyl-1H-pyrazol-4-yl)imidazo[1,2-a]pyridin-3-yl)phenyl)-1,3,4-oxadiazole] | 8.76 nM | 11 nM | 90.8 nM | 90.8 nM |  | 13.68 fold |  |  |  | 
COc1cc(-c2cnc3cc(C(=O)NCc4ccc(C)nc4)ccn23)cc(OC)c1C(=O)NCC(F)(F)F [Example 68, 3-[3,5-Dimethoxy-4-(2,2,2-trifluoroethylcarbamoyl)phenyl]-N-[(6-methyl-3-pyridyl)methyl]imidazo[1,2-a]pyridine-7-carboxamide] | 12.4 nM | 8.67 nM | 94.7 nM |  | 12 % of forskolin | 2.88 fold |  |  |  | 
COc1ccc(N2C(=O)N(c3c(C)cccc3Cl)Cc3cnc(Nc4ccc(C5CCN(C)CC5)cc4OC)nc32)nc1 [YKL-05-099] |  |  |  |  |  |  |  | comparable/superior efficacy; also recorded: increase bone density and bone formation rate | impaired renal function; also recorded: increased | hyper-glycemia; also recorded: increased
